According to US9107411B2, “Indolecarboxamides and benzimidazolecarboxamides as insecticides and acaricides” (BAYER INTELLECTUAL PROPERTY GMBH, priority 2011, dated 2015):
Like-named read-outs stand apart in the source and are kept apart here.

How the values were obtained:
Boophilus microplus = Boophilus microplus test (BOOPMI injection); assay type: in vivo; settings: application rate 20 μg/animal; injected into the abdomen; after 7 days
Method: Boophilus microplus Test (BOOPMI Injection) Solvent: dimethyl sulphoxide To prepare an appropriate active ingredient formulation, 10 mg of active ingredient are mixed with 0.5 ml of solvent and the concentrate is diluted with solvent to the desired concentration. The active ingredient solution is injected into the abdomen (Boophilus microplus), and the animals are transferred into dishes and stored in a climate-controlled room. After 7 days, the efficacy in % is determined. The activity is assessed by laying of fertile eggs. 100% means that none of the ticks has laid any fertile eggs.

Tetranychus urticae = assay: Tetranychus test, OP-resistant (TETRUR spray treatment); assay type: in vivo; settings: bean leaf discs, after 6 days
Method: Tetranychus Test, OP-Resistant (TETRUR Spray Treatment)
Solvent: 78.0 parts by weight of acetone • • 1.5 parts by weight of dimethylformamide
Emulgator: 0.5 part by weight of alkylaryl polyglycol ether
To produce an appropriate active ingredient formulation, 1 part by weight of active ingredient is mixed with the stated amounts of solvent and emulsifier, and the concentrate is diluted with emulsifier-containing water to the desired concentration.
Discs of bean leaves (Phaseolus vulgaris) infested by all stages of the red spider mite (Tetranychus urticae) are sprayed with an active ingredient formulation of the desired concentration.
After 6 days, the efficacy in % is determined. 100% means that all of the spider mites have been killed; 0% means that none of the spider mites have been killed.

logP (HPLC-MS) = assay type: physicochemical
Phaedon cochleariae = assay: Phaedon test (PHAECO spray treatment); assay type: in vivo; settings: Chinese cabbage leaf discs, after 7 days; for pest or weed control at 100 g/ha: Phaedon cochleariae, foliar, 168 h, read-out: efficacy in %
In short: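 Larval mortality was assessed 7 days after Phaedon cochleariae larvae were placed on dried, spray-treated Brassica pekinensis leaf discs. The formulation was an acetone/dimethylformamide concentrate with alkylaryl polyglycol ether emulsifier, diluted in emulsifier-containing water. Results are given as % kill, from 0 (no larvae dead) to 100 (all dead).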

Ctenocephalides felis = Ctenocephalides felis oral (CTECFE); assay type: in vivo; settings: application rate 100 ppm in citrated cattle blood; after 2 days
Method: Ctenocephalides felis Oral ([…]) Solvent: 1 part by weight of dimethyl sulphoxide For the purpose of preparing an appropriate active ingredient formulation, 10 mg of active ingredient are mixed with 0.5 ml of dimethyl sulphoxide. A portion of the concentrate is diluted with citrated cattle blood, and the desired concentration is prepared. About 20 unfed adult fleas (Ctenocephalides felis) are placed into a chamber which is closed at the top and bottom with gauze. A metal cylinder whose bottom end is closed with Parafilm is placed onto the chamber. The cylinder contains the blood/active ingredient formulation, which can be imbibed by the fleas through the Parafilm membrane. After 2 days, the kill in % is determined 100% means that all of the fleas have been killed; 0% means that none of the fleas have been killed.

Lucilia cuprina larvae = assay: Lucilia cuprina test (LUCICU); assay type: in vivo; settings: application rate 100 ppm; treated horse meat; after 2 days
Method: (§1) Lucilia cuprina Test (LUCICU) Solvent: dimethyl sulphoxide To prepare an appropriate active ingredient formulation, 10 mg of active ingredient are mixed with 0.5 ml of dimethyl sulphoxide and the concentrate is diluted with water to the desired concentration. Vessels containing horse meat treated with the active ingredient formulation of the desired concentration are populated with about 20 Lucilia cuprina larvae. After 2 days, the kill in % is determined. 100% means that all of the larvae have been killed; 0% means that none of the larvae have been killed.

Spodoptera frugiperda = Spodoptera frugiperda test (SPODFR spray treatment); assay type: in vivo; settings: maize leaf discs, after 7 days
In short: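 Mortality read-out at 7 days, given as % efficacy, where 100% means every caterpillar dead and 0% none. Caterpillars were placed on dried maize leaf discs that had been sprayed with test formulation. That formulation was an acetone/dimethylformamide concentrate diluted in emulsifier-containing water.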

adult Musca domestica = assay: Musca domestica test (MUSCDO); assay type: in vivo; settings: application rate 100 ppm; treated sponge; after 2 days
Method: as §1, with “Musca domestica” for “Lucilia cuprina”, “(MUSCDO)” for “(LUCICU)”, “a sponge” for “horse meat”, “adult Musca domestica.” for “about 20 Lucilia cuprina larvae.”, “determined” for “determined.”, “flies” for “larvae”

[1] = HPLC, reversed-phase column (C18), acidic range pH 2.7, acetonitrile (0.1% formic acid)/water gradient, 43° C., calibration with unbranched alkan-2-ones
[2] = HPLC, reversed-phase column (C18), acidic range pH 2.7, acetonitrile (0.1% formic acid)/water gradient, 43° C., calibration with unbranched alkan-2-ones, read-out: log p

SMILES	efficacy (laying of fertile eggs) (Boophilus microplus)	efficacy in % (Tetranychus urticae; application rate 500 g/ha)	log p (logP (HPLC-MS); [1])	efficacy in % (Phaedon cochleariae; application rate 100 g/ha)	efficacy (kill in %) (Ctenocephalides felis)	efficacy (kill in %) (Lucilia cuprina larvae)	efficacy in % (Spodoptera frugiperda; application rate 100 g/ha)	efficacy (kill in %) (adult Musca domestica)	efficacy in % (Phaedon cochleariae; application rate 500 g/ha)	efficacy in % (Spodoptera frugiperda; application rate 500 g/ha)	efficacy in % (Tetranychus urticae; application rate 100 g/ha)	chromatographic logP (logP (HPLC-MS); [2])	chromatographic logP (logP (HPLC-MS); HPLC-MS)	pest or weed control at 100 g/ha (Phaedon cochleariae; application rate 100 g/ha)
CCn1c(C(=O)NC(c2ccc(F)c(C(F)(F)F)c2)C(F)(F)F)cc2cc(C(=O)NC3CC3)c(Cl)cc21 (stereo not drawn) [Compound 3]	100%	100%	3.93	100%	100%	100%	100%	100%						
CCn1c(C(=O)NC(c2cccc(C(F)(F)F)c2)C(F)(F)F)cc2cc(C(=O)NCC(C)(F)F)c(Cl)cc21 (stereo not drawn) [Compound 10]	100%		4.06	100%	95%	100%	83%	100%						
CCn1c(C(=O)NC(c2cc(Cl)cc(Cl)c2)C(F)(F)F)cc2cc(C(=O)NC3CC3)c(Cl)cc21 (stereo not drawn) [Compound 13]	100%	80%	4.27		100%	100%		100%	100%	100%				
CCn1c(C(=O)NC(c2cccc(C(F)(F)F)c2)C(F)(F)F)cc2cc(C(=O)NC(C)(C)C#N)c(Cl)cc21 (stereo not drawn) [Compound 15]	100%		3.89	100%	100%	100%	100%	100%						
CCn1c(C(=O)NC(c2ccc(F)c(C(F)(F)F)c2)C(F)(F)F)cc2cc(C(=O)NC3(C#N)CC3)c(Cl)cc21 (stereo not drawn) [Compound 16]	100%		3.88	100%	100%	100%	100%	100%			100%			
CCn1c(C(=O)NC(c2ccc(F)c(C(F)(F)F)c2)C(F)(F)F)cc2cc(C(=O)NCC(F)F)c(Cl)cc21 (stereo not drawn) [Compound 19, 6-chloro-N^5-(2,2-difluoroethyl)-1-ethyl-N^2-{2,2,2-trifluoro-1-[4-fluoro-3-(trifluoromethyl)phenyl]ethyl}-1H-indole-2,5-dicarboxamide]	100%				100%	100%		100%				4.03	5.16	100%
CCn1c(C(=O)NC(c2ccc(F)c(Cl)c2)C(F)(F)F)cc2cc(C(=O)NC3(C#N)CC3)c(Cl)cc21 (stereo not drawn) [Compound 20]	100%		3.79	100%	100%	100%	100%	100%			80%			
CCn1c(C(=O)NC(c2cccc(C(F)(F)F)c2)C(F)(F)F)cc2cc(C(=O)NC3(C)CC3)c(Cl)cc21 (stereo not drawn) [Compound 22]	100%		4.16	100%	100%	100%	83%	100%			80%			
CCn1c(C(=O)NC(c2ccc(F)c(Br)c2)C(F)(F)F)cc2cc(C(=O)NC3(C#N)CC3)c(Cl)cc21 (stereo not drawn) [Compound 42]	100%		3.76	100%	100%	100%	100%	100%			100%			
Cn1c(C(=O)NC(c2ccc(F)c(C(F)(F)F)c2)C(F)(F)F)cc2cc(C(=O)NC3CC3)c(Cl)cc21 (stereo not drawn) [Compound 49]	100%		3.70	100%	98%	100%	100%	100%			100%			
Cn1c(C(=O)NC(c2ccc(F)c(C(F)(F)F)c2)C(F)(F)F)cc2cc(C(=O)NC3(C#N)CC3)c(Cl)cc21 (stereo not drawn) [Compound 50]	100%		3.52	100%	100%	100%	100%	100%			100%			
Cn1c(C(=O)NC(c2ccc(F)c(Br)c2)C(F)(F)F)cc2cc(C(=O)NC3(C#N)CC3)c(Cl)cc21 (stereo not drawn) [Compound 52]	100%		3.44	100%	100%	100%	100%	100%			100%			
C#CCn1c(C(=O)NC(c2cccc(C(F)(F)F)c2)C(F)(F)F)cc2cc(C(=O)NC3(C#N)CC3)c(Cl)cc21 (stereo not drawn) [Compound 57, 6-chloro-N^5-(1-cyanocyclopropyl)-1-(prop-2-yn-1-yl)-N^2-{2,2,2-trifluoro-1-[3-(trifluoromethyl)phenyl]ethyl}-1H-indole-2,5-dicarboxamide]	100%				100%	100%	100%	100%			100%	3.49	3.49	100%
C#CCn1c(C(=O)NC(c2ccc(F)c(C(F)(F)F)c2)C(F)(F)F)cc2cc(C(=O)NC3(C#N)CC3)c(Cl)cc21 (stereo not drawn) [Compound 61]	100%		3.65	100%	100%	100%	100%	100%			100%			
C#CCn1c(C(=O)NC(c2ccc(F)c(Br)c2)C(F)(F)F)cc2cc(C(=O)NC3(C#N)CC3)c(Cl)cc21 (stereo not drawn) [Compound 62]	100%		3.57	100%	100%	100%	100%	80%			90%			
C#CCn1c(C(=O)NC(c2ccc(F)c(Cl)c2)C(F)(F)F)cc2cc(C(=O)NC3CC3)c(Cl)cc21 (stereo not drawn) [Compound 63]	100%		3.57	100%	100%	100%	100%	100%			100%			
